Two molecules from the NIST ThermoML archive (doi:10.1016/j.fluid.2017.10.025) can be followed below.

Series [1] is described as follows: refractive index (Na D-line) (dimensionless). Conditions: 298.15 K; 101.33 kPa; Liquid; 2AWJ refractometer.
The conditions of series [2]: 293.15 K; 101.33 kPa; Liquid; buoyancy.

SMILES strings stand for the structures. Numbers after ± are expanded uncertainties.

Turning to `C=CCO` [2-propenol], in series [1], the refractive index is 1.4129 ± 0.0003. The mass density in series [2] is on record as 855 ± 0.7 kg/m3.
As for `O` [water], the refractive index in series [1] was 1.3327 ± 0.0002. Moreover, the mass density in series [2] stood at 998.3 ± 0.6 kg/m3.
